Experimental data published in patent US20260215418A1, “HYDROCARBON ALCOHOLS AND THEIR DERIVATIVES AS SYNERGISTS IN PESTICIDE ACTIVITY” (priority 2022, published 2026).

Tested on: Blattella germanica
Assay: Contact test on non-porous tile, Blattella germanica
Assay type: in vivo
Settings: 24 h; for Mortality %/time (h) (application): Table 37, Blattella germanica, concentrations in mg/ml in label
Description: 1 ml of Composition 36 was distributed on the tile. […] 1 ml of Composition 37 was distributed on a tile.

| Compound | Mortality % (Example 34, 25° C, insects on treated tile) [%] | Mortality %/time (h) (application) |
| --- | --- | --- |
| O=[N+]([O-])NC1=NCCN1Cc1ccc(Cl)nc1 [Composition 36, Imidacloprid, reference compound] | 27 | 27/24 ^ % |
| Oleic alcohol [Composition 37] | – | 7/24 ^ % |
